Like-named read-outs stand apart in the source and are kept apart here.
Assays:
[1] = target: mMC4R (Mus musculus, UniProt P56450); assay: cAMP based functional bioassay (CRE/β-galactosidase reporter), agonist activity at mMC4R; details: for mMC4R Activity @ 10 μM (class) / mMC4R Activity @ 10 μM (relative activity, percent): reported where receptor not activated to full activity
Procedure: (§1) The compounds were evaluated using a whole cell assay.
(§2) Compounds were dissolved in DMSO at a stock concentration of 10^−2 M and stored at −20° C. until assayed. HEK-293 cells stably expressing the selected melanocortin receptors were transiently transfected with 4 μg of CRE/β-galactosidase reporter gene. Briefly, 5000-15000 post transfection cells were plated into collagen treated 96-well plates (Nunc) and incubated overnight. […] The assay media was aspirated, and 50 μL of lysis buffer (250 mM Tris-HCl pH=8.0 and 0.1% Triton X-100) was added. The plates were stored at −80° C. overnight. The plates containing the cell lysates were thawed the following day. Aliquots of 10 μL were taken from each well and transferred to another 96-well plate for relative protein determination. To the cell lysate plates, 40 μL of phosphate-buffered saline with 0.5% BSA was added to each well. Subsequently, 150 μL of substrate buffer (60 mM sodium phosphate, 1 mM MgCl2, 10 mM KCl, 5 mM β-mercaptoethanol, 2 mg/mL ONPG) was added to each well and the plates were incubated at 37° C. The sample absorbance, OD405, was measured using a 96-well plate reader (Molecular Devices). The relative protein was determined by adding 200 μL of 1:5 dilution BioRad G250 protein dye:water to the 10 μL of cell lysate sample taken previously, and the OD595 was measured on a 96-well plate reader (Molecular Devices). Data points were normalized to forskolin and the relative protein content were used as positive controls. The EC50 values represent the mean of three or more independent experiments. The EC50 estimates, and their associated standard errors of the mean, were determined by fitting the data to a nonlinear least-squares analysis using the PRISM program (v4.0, GraphPad Inc.).
(§3) The results are tabulated in the form of EC50 values. In the case where the particular receptor was not activated to full activity at 100,000 nM, then the relative activity was reported.

[2] = target: mMC5R (Mus musculus, UniProt P41149); assay: cAMP based functional bioassay (CRE/β-galactosidase reporter), agonist activity at mMC5R; details: for mMC5R Activity @ 10 μM (class) / mMC5R Activity @ 10 μM (relative activity, percent): reported where receptor not activated to full activity
Procedure: as §1, §2, §3

[3] = target: mMC1R (Mus musculus, UniProt Q01727); assay: cAMP based functional bioassay (CRE/β-galactosidase reporter), agonist activity at mMC1R; details: for mMC1R Activity @ 10 μM (class) / mMC1R Activity @ 10 μM (relative activity, percent): reported where receptor not activated to full activity
Procedure: as §1, §2, §3

[4] = target: mMC3R (Mus musculus, UniProt P33033); assay: cAMP based functional bioassay (CRE/β-galactosidase reporter), agonist activity at mMC3R; details: for mMC3R Activity @ 10 μM (class) / mMC3R Activity @ 10 μM (relative activity, percent): reported where receptor not activated to full activity
Chain of mMC3R (P33033 whole entry): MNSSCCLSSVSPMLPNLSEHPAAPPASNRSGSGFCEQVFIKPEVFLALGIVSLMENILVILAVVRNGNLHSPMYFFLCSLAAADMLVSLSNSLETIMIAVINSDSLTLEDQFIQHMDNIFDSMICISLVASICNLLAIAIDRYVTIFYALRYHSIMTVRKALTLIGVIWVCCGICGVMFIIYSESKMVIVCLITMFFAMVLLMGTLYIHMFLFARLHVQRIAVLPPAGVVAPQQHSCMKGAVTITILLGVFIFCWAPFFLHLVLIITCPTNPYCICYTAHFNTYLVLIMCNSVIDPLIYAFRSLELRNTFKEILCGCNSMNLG
Procedure: as §1, §2, §3

Chain of mMC4R (P56450 whole entry): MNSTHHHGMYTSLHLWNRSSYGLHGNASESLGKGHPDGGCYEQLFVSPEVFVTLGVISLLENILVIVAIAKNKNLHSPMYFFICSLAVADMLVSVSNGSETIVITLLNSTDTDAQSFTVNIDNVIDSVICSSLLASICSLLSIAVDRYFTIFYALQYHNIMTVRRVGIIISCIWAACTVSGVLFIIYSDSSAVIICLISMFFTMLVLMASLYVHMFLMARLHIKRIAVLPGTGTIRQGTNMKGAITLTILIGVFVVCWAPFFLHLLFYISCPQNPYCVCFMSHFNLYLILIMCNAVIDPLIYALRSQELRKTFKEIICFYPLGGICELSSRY
Chain of mMC5R (P41149 whole entry): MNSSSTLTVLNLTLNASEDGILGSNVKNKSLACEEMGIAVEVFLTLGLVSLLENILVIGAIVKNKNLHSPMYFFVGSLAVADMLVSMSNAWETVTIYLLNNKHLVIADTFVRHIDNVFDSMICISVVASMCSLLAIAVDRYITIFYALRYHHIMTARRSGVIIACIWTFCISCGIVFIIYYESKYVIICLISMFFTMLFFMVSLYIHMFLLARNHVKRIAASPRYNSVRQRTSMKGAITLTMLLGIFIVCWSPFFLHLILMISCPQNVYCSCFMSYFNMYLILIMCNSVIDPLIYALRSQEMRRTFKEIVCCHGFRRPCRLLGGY
Chain of mMC1R (Q01727 whole entry): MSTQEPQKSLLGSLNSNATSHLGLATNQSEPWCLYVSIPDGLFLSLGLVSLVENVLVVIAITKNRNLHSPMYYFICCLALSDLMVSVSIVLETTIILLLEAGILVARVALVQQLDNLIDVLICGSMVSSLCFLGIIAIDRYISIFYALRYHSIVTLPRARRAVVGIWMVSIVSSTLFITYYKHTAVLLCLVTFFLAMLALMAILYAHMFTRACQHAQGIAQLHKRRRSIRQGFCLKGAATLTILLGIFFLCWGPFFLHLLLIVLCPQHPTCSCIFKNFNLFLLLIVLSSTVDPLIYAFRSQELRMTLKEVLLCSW

Row | mMC4R Activity @ 10 μM (class) [1] | mMC4R Activity @ 10 μM (relative activity, percent) [1] [%] | EC50 [2] [nM] | mMC3R Activity @ 10 μM (class) [4] | EC50 [3] [nM] | mMC3R Activity @ 10 μM (relative activity, percent) [4] [%] | Structure (SMILES) | also measured
1 | A (A: <50%) | 40 | 1040 ± 150 | B (B: >51%) |  |  | CCC[C@@H]1CN([C@H](CC2CCCCC2)CN2CCC[C@H]2CN2C(=N)NC[C@H]2C(C)C)C(=N)N1CCCC(C)C [TPI 2509-27] | mMC1R Activity @ 10 μM (class) [3]: B (B: >51%)
2 |  |  | 740 ± 270 |  | 700 ± 80 |  | CC(C)CCCN1C(=N)N([C@H](CC2CCCCC2)CN2CCC[C@H]2CN2C(=N)NC[C@H]2C(C)C)C[C@H]1[C@@H](C)O [TPI 2509-24, (R)-1-((S)-1-((R)-1-cyclohexyl-3-((S)-2-(((R)-2-imino-5-isopropylimidazolidin-1-yl)methyl)pyrrolidin-1-yl)propan-2-yl)-2-imino-3-(4-methylpentyl)imidazolidin-4-yl)ethanol] | EC50 [4]: 5200 ± 1540 nM
3 | A (A: <50%) | 45 | 590 ± 180 |  | 550 |  | CCC[C@@H]1CN([C@H](CC2CCCCC2)CN2CCC[C@H]2CN2C(=N)NC[C@H]2C(C)C)C(=N)N1CC12CC3CC(CC(C3)C1)C2 [TPI 2509-25, (R)-3-(adamantan-1-ylmethyl)-1-((R)-1-cyclohexyl-3-((S)-2-(((R)-2-imino-5-isopropylimidazolidin-1-yl)methyl)pyrrolidin-1-yl)propan-2-yl)-4-propylimidazolidin-2-imine] | EC50 [4]: 2800 ± 1800 nM
4 | A (A: <50%) | 28 | 480 ± 170 | B (B: >51%) |  | 83 | CCC[C@@H]1CN([C@H](Cc2ccccc2)CN2CCC[C@H]2CN2C(=N)NC[C@H]2CC(C)C)C(=N)N1CC1CCC(C(C)(C)C)CC1 (stereo partly shown) [TPI 2509-17] | mMC1R Activity @ 10 μM (class) [3]: A (A: <50%); mMC1R Activity @ 10 μM (relative activity, percent) [3]: 38%
5 | A (A: <50%) | 21 | 1600 ± 460 |  | 10200 ± 6570 |  | CC(C)CCCN1C(=N)N([C@H](Cc2ccccc2)CN2CCC[C@H]2CN2C(=N)NC[C@H]2C(C)C)C[C@H]1C(C)C [TPI 2509-39, (R)-1-((R)-1-((S)-2-(((R)-2-imino-5-isopropylimidazolidin-1-yl)methyl)pyrrolidin-1-yl)-3-phenylpropan-2-yl)-4-isopropyl-3-(4-methylpentyl)imidazolidin-2-imine] | 
6 |  |  | 560 ± 170 | B (B: >51%) | 6800 ± 600 | 62 | CC(C)C[C@@H]1CNC(=N)N1C[C@@H]1CCCN1C[C@@H](Cc1ccccc1)N1C[C@@H](C(C)C)N(CC2CCC(C(C)(C)C)CC2)C1=N (stereo partly drawn) [TPI 2509-20, (R)-3-((4-(tert-butyl)cyclohexyl)methyl)-1-((R)-1-((S)-2-(((R)-2-imino-5-isobutylimidazolidin-1-yl)methyl)pyrrolidin-1-yl)-3-phenylpropan-2-yl)-4-isopropylimidazolidin-2-imine] | 
7 | A (A: <50%) | 41 | 2030 ± 980 |  | 22900 ± 10000 |  | CCC[C@@H]1CN([C@H](Cc2ccccc2)CN2CCC[C@H]2CN2C(=N)NC[C@H]2C(C)C)C(=N)N1CCCC(C)C [TPI 2509-36, (R)-1-((R)-1-((S)-2-(((R)-2-imino-5-isopropylimidazolidin-1-yl)methyl)pyrrolidin-1-yl)-3-phenylpropan-2-yl)-3-(4-methylpentyl)-4-propylimidazolidin-2-imine] | 
8 |  |  | 1800 ± 130 | B (B: >51%) | 2300 ± 90 | 58 | CCC[C@@H]1CN([C@H](CC2CCCCC2)CN2CCC[C@H]2CN2C(=N)NC[C@H]2CC(C)C)C(=N)N1CCCC(C)C [TPI 2509-9] | EC50 [1]: 6700 ± 2400 nM
9 | A (A: <50%) | 28 | 510 ± 50 |  | 290 ± 20 |  | CC(C)[C@@H]1CNC(=N)N1C[C@@H]1CCCN1C[C@@H](CC1CCCCC1)N1C[C@@H](C(C)C)N(CC2CCC(C(C)(C)C)CC2)C1=N (stereo partly drawn) [TPI 2509-29, (R)-3-((4-(tert-butyl)cyclohexyl)methyl)-1-((R)-1-cyclohexyl-3-((S)-2-(((R)-2-imino-5-isopropylimidazolidin-1-yl)methyl)pyrrolidin-1-yl)propan-2-yl)-4-isopropylimidazolidin-2-imine] | EC50 [4]: 4300 ± 3300 nM
10 | B (B: >51%) | 65 | 530 ± 50 | B (B: >51%) | 500 ± 50 | 75 | CCC[C@@H]1CN([C@H](CC2CCCCC2)CN2CCC[C@H]2CN2C(=N)NC[C@H]2CC(C)C)C(=N)N1CC1CCC(C(C)(C)C)CC1 (stereo partly drawn) [TPI 2509-8, (R)-3-((4-(tert-butyl)cyclohexyl)methyl)-1-((R)-1-cyclohexyl-3-((S)-2-(((R)-2-imino-5-isobutylimidazolidin-1-yl)methyl)pyrrolidin-1-yl)propan-2-yl)-4-propylimidazolidin-2-imine] | 
11 | A (A: <50%) | 40 | 580 ± 160 |  | 300 ± 30 |  | CC(C)[C@@H]1CNC(=N)N1C[C@@H]1CCCN1C[C@@H](CC1CCCCC1)N1C[C@@H](C(C)C)N(CC23CC4CC(CC(C4)C2)C3)C1=N [TPI 2509-28, (R)-3-(adamantan-1-ylmethyl)-1-((R)-1-cyclohexyl-3-((S)-2-(((R)-2-imino-5-isopropylimidazolidin-1-yl)methyl)pyrrolidin-1-yl)propan-2-yl)-4-isopropylimidazolidin-2-imine] | EC50 [4]: 3700 ± 880 nM
12 | B (B: >51%) |  | 2180 ± 625 |  |  |  | CCC[C@@H]1CN([C@H](Cc2ccccc2)CN2CCC[C@H]2CN2C(=N)NC[C@H]2CC(C)C)C(=N)N1CCCC(C)C [TPI 2509-18, (R)-1-((R)-1-((S)-2-(((R)-2-imino-5-isobutylimidazolidin-1-yl)methyl)pyrrolidin-1-yl)-3-phenylpropan-2-yl)-3-(4-methylpentyl)-4-propylimidazolidin-2-imine] | 
13 |  |  |  |  |  |  | CC(C)CCCN1C(=N)N([C@H](Cc2ccccc2)CN2CCC[C@H]2CN2C(=N)NC[C@H]2C(C)C)C[C@H]1[C@@H](C)O [TPI 2509-33, (R)-1-((S)-2-imino-1-((R)-1-((S)-2-(((R)-2-imino-5-isopropylimidazolidin-1-yl)methyl)pyrrolidin-1-yl)-3-phenylpropan-2-yl)-3-(4-methylpentyl)imidazolidin-4-yl)ethanol] | mMC5R Activity @ 10 μM (class) [2]: A (A: <50%); mMC5R Activity @ 10 μM (relative activity, percent) [2]: 40%; mMC1R Activity @ 10 μM (class) [3]: B (B: >51%)
14 |  |  |  |  |  |  | CC(C)CCCN1C(=N)N([C@H](Cc2ccccc2)CN2CCC[C@H]2CN2C(=N)NC[C@H]2CC(C)C)C[C@H]1[C@@H](C)O [TPI 2509-15, (R)-1-((S)-2-imino-1-((R)-1-((S)-2-(((R)-2-imino-5-isobutylimidazolidin-1-yl)methyl)pyrrolidin-1-yl)-3-phenylpropan-2-yl)-3-(4-methylpentyl)imidazolidin-4-yl)ethanol] | mMC5R Activity @ 10 μM (class) [2]: B (B: >51%); mMC5R Activity @ 10 μM (relative activity, percent) [2]: 77%; mMC1R Activity @ 10 μM (class) [3]: B (B: >51%); mMC1R Activity @ 10 μM (relative activity, percent) [3]: 62%
15 |  |  | 600 ± 170 | B (B: >51%) | 29100 ± 20000 | 68 | CC(C)[C@@H]1CNC(=N)N1C[C@@H]1CCCN1C[C@@H](Cc1ccccc1)N1C[C@@H](C(C)C)N(CC2CCC(C(C)(C)C)CC2)C1=N (stereo partly drawn) [TPI 2509-38, (R)-3-((4-(tert-butyl)cyclohexyl)methyl)-1-((R)-1-((S)-2-(((R)-2-imino-5-isopropylimidazolidin-1-yl)methyl)pyrrolidin-1-yl)-3-phenylpropan-2-yl)-4-isopropylimidazolidin-2-imine] | 
16 | A (A: <50%) |  | 1260 ± 130 | A (A: <50%) |  |  | CC(C)CCCN1C(=N)N([C@H](Cc2ccccc2)CN2CCC[C@H]2CN2C(=N)NC[C@H]2CC(C)C)C[C@H]1C(C)C [TPI 2509-21, (R)-1-((R)-1-((S)-2-(((R)-2-imino-5-isobutylimidazolidin-1-yl)methyl)pyrrolidin-1-yl)-3-phenylpropan-2-yl)-4-isopropyl-3-(4-methylpentyl)imidazolidin-2-imine] | 
17 |  |  | 560 ± 50 | B (B: >51%) |  | 69 | CC(C)C[C@@H]1CNC(=N)N1C[C@@H]1CCCN1C[C@@H](CC1CCCCC1)N1C[C@@H](C(C)C)N(CC2CCC(C(C)(C)C)CC2)C1=N (stereo partly drawn) [TPI 2509-11, (R)-3-((4-(tert-butyl)cyclohexyl)methyl)-1-((R)-1-cyclohexyl-3-((S)-2-(((R)-2-imino-5-isobutylimidazolidin-1-yl)methyl)pyrrolidin-1-yl)propan-2-yl)-4-isopropylimidazolidin-2-imine] | mMC1R Activity @ 10 μM (class) [3]: B (B: >51%); mMC1R Activity @ 10 μM (relative activity, percent) [3]: 54%
18 |  |  |  |  |  |  | CC(=O)N[C@@H](Cc1c[nH]cn1)C(=O)N[C@H](Cc1ccccc1)C(=O)N[C@@H](CCCNC(=N)N)C(=O)N[C@@H](Cc1c[nH]c2ccccc12)C(N)=O [Ac-His-DPhe-Arg-Trp-NH2, reference compound] | EC50 ([1]; read-out: mMC4R Mean ± SEM (agonist EC50), HEK-293 cells, mean of three or more experiments): 5.5 ± 0.8 nM; EC50 ([2]; read-out: mMC5R Mean ± SEM (agonist EC50), HEK-293 cells, mean of three or more experiments): 4.2 ± 1 nM
